Results as given in the NIST ThermoML archive (doi:10.1016/j.jct.2016.03.026).

Assay: xn = mol fraction of the nth substance listed
Settings: 263.15 K, Fluid (supercritical or subcritical phases), Vibrating tube method, x1 = 0.97

O=C=O [carbon dioxide] + CO
Settings | mass density [kg/m3]
13625 kPa | 1031.69
13650 kPa | 1031.77
13675 kPa | 1031.94
13700 kPa | 1031.97
13725 kPa | 1032.1
13750 kPa | 1032.18
13775 kPa | 1032.26
13800 kPa | 1032.34
13825 kPa | 1032.42
13850 kPa | 1032.53
13875 kPa | 1032.61
13900 kPa | 1032.75
13925 kPa | 1032.83
13950 kPa | 1032.91
13975 kPa | 1032.99
14000 kPa | 1033.08
14025 kPa | 1033.16
14050 kPa | 1033.24
14075 kPa | 1033.38
14100 kPa | 1033.48
14125 kPa | 1033.57
14150 kPa | 1033.65
14175 kPa | 1033.73
14200 kPa | 1033.81
14225 kPa | 1033.9
14250 kPa | 1033.97
14275 kPa | 1034.13
14300 kPa | 1034.22
14325 kPa | 1034.3
14350 kPa | 1034.38
14375 kPa | 1034.46
14400 kPa | 1034.54
14425 kPa | 1034.62
14450 kPa | 1034.7
14475 kPa | 1034.86
14500 kPa | 1034.95
14525 kPa | 1035.03
14550 kPa | 1035.11
14575 kPa | 1035.19
14600 kPa | 1035.28
14625 kPa | 1035.36
14650 kPa | 1035.44
14675 kPa | 1035.52
14700 kPa | 1035.62
14725 kPa | 1035.77
14750 kPa | 1035.83
14775 kPa | 1035.93
14800 kPa | 1036.01
14825 kPa | 1036.09
14850 kPa | 1036.17
14875 kPa | 1036.25
14900 kPa | 1036.34
14925 kPa | 1036.42
14950 kPa | 1036.51
14975 kPa | 1036.63
15000 kPa | 1036.74
15025 kPa | 1036.78
15050 kPa | 1036.9
15075 kPa | 1036.96
15100 kPa | 1037.07
15125 kPa | 1037.15
15150 kPa | 1037.23
15175 kPa | 1037.31
15200 kPa | 1037.39
15225 kPa | 1037.5
15250 kPa | 1037.56
15275 kPa | 1037.66
15300 kPa | 1037.72
15325 kPa | 1037.8
15350 kPa | 1037.91
15375 kPa | 1038.01
15400 kPa | 1038.07
15425 kPa | 1038.19
15450 kPa | 1038.28
15475 kPa | 1038.37
15500 kPa | 1038.45
15525 kPa | 1038.53
15550 kPa | 1038.61
15575 kPa | 1038.7
15600 kPa | 1038.78
15625 kPa | 1038.86
15650 kPa | 1038.94
15675 kPa | 1039.02
15700 kPa | 1039.1
15725 kPa | 1039.19
15750 kPa | 1039.26
15775 kPa | 1039.35
15800 kPa | 1039.43
15825 kPa | 1039.51
15850 kPa | 1039.61
15875 kPa | 1039.7
15900 kPa | 1039.79
15925 kPa | 1039.88
15950 kPa | 1039.97
15975 kPa | 1040.06
16000 kPa | 1040.16
16025 kPa | 1040.2
16050 kPa | 1040.31
16075 kPa | 1040.4
16100 kPa | 1040.49
16125 kPa | 1040.57
16150 kPa | 1040.65
16175 kPa | 1040.73
16200 kPa | 1040.81
16225 kPa | 1040.89
16250 kPa | 1040.97
16275 kPa | 1041.05
16300 kPa | 1041.16
16325 kPa | 1041.25
16350 kPa | 1041.32
16375 kPa | 1041.38
16400 kPa | 1041.46
16425 kPa | 1041.59
16450 kPa | 1041.66
16475 kPa | 1041.72
16500 kPa | 1041.79
16525 kPa | 1041.91
16550 kPa | 1041.95
16575 kPa | 1042.08
16600 kPa | 1042.19
16625 kPa | 1042.27
16650 kPa | 1042.33
16675 kPa | 1042.38
16700 kPa | 1042.51
16725 kPa | 1042.57
16750 kPa | 1042.68
16775 kPa | 1042.75
16800 kPa | 1042.82
16825 kPa | 1042.91
16850 kPa | 1043.01
16875 kPa | 1043.08
16900 kPa | 1043.17
16925 kPa | 1043.24
16950 kPa | 1043.33
16975 kPa | 1043.4
17000 kPa | 1043.49
17025 kPa | 1043.57
17050 kPa | 1043.64
17075 kPa | 1043.74
17100 kPa | 1043.82
17125 kPa | 1043.9
17150 kPa | 1043.98
17175 kPa | 1044.06
17200 kPa | 1044.14
17225 kPa | 1044.22
17250 kPa | 1044.31
17275 kPa | 1044.39
17300 kPa | 1044.44
17325 kPa | 1044.55
17350 kPa | 1044.63
17375 kPa | 1044.71
17400 kPa | 1044.79
17425 kPa | 1044.87
17450 kPa | 1044.94
17475 kPa | 1045.04
17500 kPa | 1045.12
17525 kPa | 1045.2
17550 kPa | 1045.28
17575 kPa | 1045.33
17600 kPa | 1045.44
17625 kPa | 1045.52
17650 kPa | 1045.61
17675 kPa | 1045.69
17700 kPa | 1045.77
17725 kPa | 1045.81
17750 kPa | 1045.89
17775 kPa | 1045.97
17800 kPa | 1046.04
17825 kPa | 1046.11
17850 kPa | 1046.26
17875 kPa | 1046.32
17900 kPa | 1046.37
17925 kPa | 1046.44
17950 kPa | 1046.51
17975 kPa | 1046.58
18000 kPa | 1046.66
18025 kPa | 1046.79
18050 kPa | 1046.85
18075 kPa | 1046.9
18100 kPa | 1046.98
18125 kPa | 1047.07
18150 kPa | 1047.15
18175 kPa | 1047.23
18200 kPa | 1047.31
18225 kPa | 1047.37
18250 kPa | 1047.47
18275 kPa | 1047.55
18300 kPa | 1047.62
18325 kPa | 1047.69
18350 kPa | 1047.75
18375 kPa | 1047.82
18400 kPa | 1047.88
18425 kPa | 1047.96
18450 kPa | 1048.04
18475 kPa | 1048.11
18500 kPa | 1048.2
18525 kPa | 1048.28
18550 kPa | 1048.31
18575 kPa | 1048.43
18600 kPa | 1048.53
18625 kPa | 1048.58
18650 kPa | 1048.64
18675 kPa | 1048.74
18700 kPa | 1048.83
18725 kPa | 1048.85
18750 kPa | 1048.93
18775 kPa | 1048.93
18800 kPa | 1049.06
18825 kPa | 1049.09
18850 kPa | 1049.34
18875 kPa | 1049.42
18900 kPa | 1049.5
18925 kPa | 1049.58
18950 kPa | 1049.66
18975 kPa | 1049.74
19000 kPa | 1049.82
19025 kPa | 1049.91
19050 kPa | 1049.99
19075 kPa | 1050.07
19100 kPa | 1050.15
19125 kPa | 1050.23
19150 kPa | 1050.31
19175 kPa | 1050.39
19200 kPa | 1050.47
19225 kPa | 1050.56
19250 kPa | 1050.63
19275 kPa | 1050.72
19300 kPa | 1050.8
19325 kPa | 1050.88
19350 kPa | 1050.96
19375 kPa | 1051.04
19400 kPa | 1051.12
19425 kPa | 1051.21
19450 kPa | 1051.29
19475 kPa | 1051.35
19500 kPa | 1051.45
19525 kPa | 1051.53
19550 kPa | 1051.58
19575 kPa | 1051.69
19600 kPa | 1051.77
19625 kPa | 1051.83
19650 kPa | 1051.89
19675 kPa | 1052.02
